Reference: ChEMBL document CHEMBL1141115, “Synthesis of leukotriene B4 antagonists labeled with In-111 or Tc-99m to image infectious and inflammatory foci” (J Med Chem, 2005)

Key:
[1] = target: T1, Leukotriene B4 receptor 1 (Homo sapiens, UniProt Q15722); assay: Inhibitory concentration against human leukotriene B4 receptor using competing agent [3H]-LTB4 as radioligand in pH 7.2 buffer, for 1 h at 37 degree C; (n=2)
[2] = target: T1, Leukotriene B4 receptor 1; assay: Inhibitory concentration against human leukotriene B4 receptor using competing agent [111In]-(17)] as radioligand in pH 7.2 buffer, for 1 hr at 37 degree C; (n=2)
[3] = target: T1, Leukotriene B4 receptor 1; assay: Inhibitory concentration against human leukotriene B4 receptor using competing agent [3H]-LTB4 as radioligand in pH 7.2 buffer upon incubation for 1 hr at 37 degree C; (n=4)
[4] = target: T1, Leukotriene B4 receptor 1; assay: Inhibitory concentration against human leukotriene B4 receptor using competing agent [3H]-LTB4 as radioligand in pH 7.2 buffer, for 1 hr at 37 degree C

T1 sequence (Q15722 whole entry): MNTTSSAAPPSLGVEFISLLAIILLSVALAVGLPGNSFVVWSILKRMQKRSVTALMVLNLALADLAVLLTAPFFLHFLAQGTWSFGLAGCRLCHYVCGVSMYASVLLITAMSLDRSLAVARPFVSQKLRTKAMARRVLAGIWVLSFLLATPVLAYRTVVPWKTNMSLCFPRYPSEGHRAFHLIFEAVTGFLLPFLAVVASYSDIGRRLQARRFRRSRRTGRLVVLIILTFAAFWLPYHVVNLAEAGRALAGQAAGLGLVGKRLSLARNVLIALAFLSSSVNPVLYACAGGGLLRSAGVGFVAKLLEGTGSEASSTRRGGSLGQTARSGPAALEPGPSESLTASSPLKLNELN

Row | IC50 [1] [nM] | IC50 [2] [nM] | Structure (SMILES) | other results
1 |  | 44 | CC(C)(CCCCOc1cc(-c2ccccc2)cc(-c2ccccc2)n1)c1nnnn1CCCCC(=O)NCCCOCCOCCOCCCNC(=O)c1ccc(N/N=C/c2ccccc2S(=O)(=O)O)nc1 | IC50 [3]: 45 nM
2 |  | 16 | CC(C)(CCCCOc1cc(-c2ccccc2)cc(-c2ccccc2)n1)c1nnnn1CCCCC(=O)NCCCOCCOCCOCCCNC(=O)[C@H](CS(=O)(=O)O)NC(=O)[C@H](CS(=O)(=O)O)NC(=O)[C@H](CS(=O)(=O)O)NC(=O)[C@H](CS(=O)(=O)O)NC(=O)c1ccc(N/N=C/c2ccccc2)nc1 | 
3 |  | 230 | CC(C)(CCCCOc1cc(-c2ccccc2)cc(-c2ccccc2)n1)c1nnnn1CCCCC(=O)NCCCOCCOCCOCCCNC(=O)[C@H](CS(=O)(=O)O)NC(=O)[C@H](CS(=O)(=O)O)NC(=O)[C@H](CS(=O)(=O)O)NC(=O)[C@H](CS(=O)(=O)O)NC(=O)CC[C@H](NC(=O)c1ccc(N/N=C/c2ccccc2)nc1)C(=O)N[C@@H](CS(=O)(=O)O)C(=O)N[C@@H](CS(=O)(=O)O)C(=O)N[C@@H](CS(=O)(=O)O)C(=O)N[C@@H](CS(=O)(=O)O)C(=O)NCCCOCCOCCOCCCNC(=O)CCCCn1nnnc1C(C)(C)CCCCOc1cc(-c2ccccc2)cc(-c2ccccc2)n1 | 

The remaining lines, values behind:

Row | Structure (SMILES) | IC50 [1] [nM] | IC50 [2] [nM] | other results
4 | CC(C)(CCCCOc1cc(-c2ccccc2)cc(-c2ccccc2)n1)c1nnnn1CCCCC(=O)NCCCOCCOCCOCCCNC(=O)[C@H](CS(=O)(=O)O)NC(=O)[C@H](CS(=O)(=O)O)NC(=O)[C@H](CS(=O)(=O)O)NC(=O)[C@H](CS(=O)(=O)O)NC(=O)CC[C@H](N)C(=O)N[C@@H](CS(=O)(=O)O)C(=O)N[C@@H](CS(=O)(=O)O)C(=O)N[C@@H](CS(=O)(=O)O)C(=O)N[C@@H](CS(=O)(=O)O)C(=O)NCCCOCCOCCOCCCNC(=O)CCCCn1nnnc1C(C)(C)CCCCOc1cc(-c2ccccc2)cc(-c2ccccc2)n1 | 8 |  | 
5 | CC(C)(CCCCOc1cc(-c2ccccc2)cc(-c2ccccc2)n1)c1nnnn1CCCCC(=O)NCCCOCCOCCOCCCNC(=O)[C@H](CS(=O)(=O)O)NC(=O)[C@H](CS(=O)(=O)O)NC(=O)[C@H](CS(=O)(=O)O)NC(=O)[C@H](CS(=O)(=O)O)NC(=O)CC[C@H](NC(=O)CN(CCN(CCN(CC(=O)O)CC(=O)O)CC(=O)O)CC(=O)O)C(=O)N[C@@H](CS(=O)(=O)O)C(=O)N[C@@H](CS(=O)(=O)O)C(=O)N[C@@H](CS(=O)(=O)O)C(=O)N[C@@H](CS(=O)(=O)O)C(=O)NCCCOCCOCCOCCCNC(=O)CCCCn1nnnc1C(C)(C)CCCCOc1cc(-c2ccccc2)cc(-c2ccccc2)n1 | 54 | 30 | 
6 | CC(C)(CCCCOc1cc(-c2ccccc2)cc(-c2ccccc2)n1)c1nnn[nH]1 |  |  | IC50 [4]: 20 nM
